The target of one assay is tau fibrils (Homo sapiens, UniProt P10636). The assay can be described thus: Competition binding assay against [^3H]PiB, tau fibrils. How it is done:
Recombinant tau monomer (R&D systems, Minneapolis, MN, USA) was dissolved in 20 mM of Tris HCl, pH 8.0, 100 mM of NaCl, 25 μM of low-MW heparin, and 0.5 mM of dithiothreitol to a final concentration of 300 µg/mL. The mixture was incubated with shaking at 900 rpm at 37 °C for 48 h. To separate the non-aggregated monomers from the formed fibrils, the reaction mixture was centrifuged at 12,000× g for 5 min, and the resulting pellet was washed three times with 500 μL of 20 mM Tris-HCl, pH 7.4. The supernatants from the three centrifugation steps were combined, and the concentration of the monomer in the resulting supernatant was determined in a BCA assay(Thermo Fisher Scientific, Waltham, MA, USA) (with a BSA standard curve). Determination of the concentration of fibrils formed was carried out by subtracting the amount of tau peptide monomer in the supernatant from the initial amount used for fibrillation. The pellets of the fibrils obtained above (Section 4.2.1) were resuspended in 20 mM of Tris-HCl, pH 7.4 and diluted as needed for the binding assays. A fixed concentration of [^3H]DCVJ (10 nM) and α-synuclein aggregates (125 nM), prepared as described above (Section 4.2.3), was used with different final concentrations of the DABTAs from 0.01 to 100 nM (see SI Figure S1). The experiment was carried out in quintuplicate for each concentration. The mixture was incubated for 2 h in a final volume of 200 μL per well after dilution with 20 mM of Tris-HCl, pH 7.4. The incubated mixtures were filtered through a Perkin Elmer GF/B glass filter via a TOMTEC cell harvester and immediately washed thrice with 1 mL of deionized water. The filters containing the bound ligands were dried and afterwards mixed with 3 mL of BetaPlate Scint solution (Perkin Elmer Life Sciences, Waltham, MA, USA) and left there for 2 h before counting in a Wallac 1450 MicroBeta TriLux Liquid Scintillation Counter (PerkinElmer Life Sciences, Waltham, MA, USA). For the determination of the inhibition constants, data were analyzed using GraphPad Prism software (version 7.0) to obtain IC50 values by fitting the data to the equation Y = bottom + (top − bottom)/(1 + 10(x − log IC50)). Ki values were calculated from IC50 values using the equation Ki = IC50/(1 + [radioligand]/Kd). […] Further protocol was carried out as for [^3H]DCVJ (see SI Figure S3). […] Further procedures followed the same already described in Section 4.2.3.1 (See SI Figure S4).

Assay [1] concerns the target T1, recombinant α-syn fibrils (Homo sapiens, UniProt P37840).
T1 construct: made in house
The assay can be described thus: Competition binding assay against [^3H]DCVJ, α-syn fibrils. Conditions: for Selectivity Aβ/α-syn / Selectivity tau/α-syn: ratio of Ki, [^3H]DCVJ was used; for Ki: [^3H]DCVJ was used (10 nM), α-synuclein aggregates 125 nM. The procedure: The incubation of purified recombinant α-synuclein monomer (10 mg/mL) obtained as described by Uzuegbunam was carried out in PBS (pH 7.4) at 37 °C. The solution was left shaking at 900 rpm in an Eppendorf Thermomixer for up to 84 h. Determination of the concentration of the formed fibrils (α-syn) was carried out following the centrifugation of the reaction vial at 12,000× g for 5 min. The pellet obtained was washed thrice with 20 mM of Tris-HCl, pH 7.4. The supernatants from the three centrifugation steps were combined, and the concentration of the monomer in the resulting supernatant was determined in a BCA assay (Thermo Fisher Scientific, Waltham, MA, USA) (with a BSA standard curve). Determination of the concentration of α-syn was carried out by subtracting the amount of α-synuclein monomer in the supernatant from the initial amount used for fibrillation.
(§1) The pellets of the fibrils obtained above (Section 4.2.1) were resuspended in 20 mM of Tris-HCl, pH 7.4 and diluted as needed for the binding assays.
(§2) A fixed concentration of [^3H]DCVJ (10 nM) and α-synuclein aggregates (125 nM), prepared as described above (Section 4.2.3), was used with different final concentrations of the DABTAs from 0.01 to 100 nM (see SI Figure S1). The experiment was carried out in quintuplicate for each concentration. The mixture was incubated for 2 h in a final volume of 200 μL per well after dilution with 20 mM of Tris-HCl, pH 7.4. The incubated mixtures were filtered through a Perkin Elmer GF/B glass filter via a TOMTEC cell harvester and immediately washed thrice with 1 mL of deionized water. The filters containing the bound ligands were dried and afterwards mixed with 3 mL of BetaPlate Scint solution (Perkin Elmer Life Sciences, Waltham, MA, USA) and left there for 2 h before counting in a Wallac 1450 MicroBeta TriLux Liquid Scintillation Counter (PerkinElmer Life Sciences, Waltham, MA, USA). For the determination of the inhibition constants, data were analyzed using GraphPad Prism software (version 7.0) to obtain IC50 values by fitting the data to the equation Y = bottom + (top − bottom)/(1 + 10(x − log IC50)). Ki values were calculated from IC50 values using the equation Ki = IC50/(1 + [radioligand]/Kd). […] Further protocol was carried out as for [^3H]DCVJ (see SI Figure S3).

Another assay concerns the target T2, Aβ1−42 fibrils (Homo sapiens, UniProt P05067).
T2 construct: 1 mg of β-amyloid1–42 peptide (Abcam, Cambridge, UK); purchased Abcam
The experiment in a line: Competition binding assay against [^3H]PiB, Aβ1−42 fibrils. To be noted: read-out: Ki Aβ. The procedure:
After the dissolution of 1 mg of β-amyloid1–42 peptide (Abcam, Cambridge, UK) in 50 μL of DMSO, 925 μL of Milli-Q® water was added to it, and the mixture was stirred. Finally, 25 μL of 1M Tris HCl, pH 7.4 was added to bring the final peptide concentration to 1 mg/mL. The mixture was then left to incubate at 37 °C for 30 h with shaking at 900 rpm. To separate the non-aggregated monomers from the formed fibrils, the reaction mixture was centrifuged at 12,000× g for 5 min, and the resulting pellet was washed three times with 500 μL of 20 mM Tris-HCl, pH 7.4. The supernatants from the three centrifugation steps were combined, and the concentration of the monomer in the resulting supernatant was determined in a BCA assay (Thermo Fisher Scientific, Waltham, MA, USA) (with a BSA standard curve). Determination of the concentration of fibrils formed was carried out by subtracting the amount of β-amyloid1−42 peptide monomer in the supernatant from the initial amount used for fibrillation.
as §1, §2
Further procedures followed the same already described in Section 4.2.3.1 (See SI Figure S4).

In assay [2] the target is T1, recombinant α-syn fibrils. The assay can be described thus: Competition binding assay against [^3H]PiB, α-syn fibrils. To be noted: for Selectivity Aβ/α-syn / Selectivity tau/α-syn: ratio of Ki, [^3H]PiB was used.

The values below come from paper PMC10671360, “In Silico and In Vitro Study towards the Rational Design of 4,4′-Disarylbisthiazoles as a Selective α-Synucleinopathy Biomarker” (International Journal of Molecular Sciences, 2023).

In general, Ki refers to the dissociation constant of the complex between target and ligand, obtained from inhibition or displacement.

Sequence of tau fibrils (P10636 2-758): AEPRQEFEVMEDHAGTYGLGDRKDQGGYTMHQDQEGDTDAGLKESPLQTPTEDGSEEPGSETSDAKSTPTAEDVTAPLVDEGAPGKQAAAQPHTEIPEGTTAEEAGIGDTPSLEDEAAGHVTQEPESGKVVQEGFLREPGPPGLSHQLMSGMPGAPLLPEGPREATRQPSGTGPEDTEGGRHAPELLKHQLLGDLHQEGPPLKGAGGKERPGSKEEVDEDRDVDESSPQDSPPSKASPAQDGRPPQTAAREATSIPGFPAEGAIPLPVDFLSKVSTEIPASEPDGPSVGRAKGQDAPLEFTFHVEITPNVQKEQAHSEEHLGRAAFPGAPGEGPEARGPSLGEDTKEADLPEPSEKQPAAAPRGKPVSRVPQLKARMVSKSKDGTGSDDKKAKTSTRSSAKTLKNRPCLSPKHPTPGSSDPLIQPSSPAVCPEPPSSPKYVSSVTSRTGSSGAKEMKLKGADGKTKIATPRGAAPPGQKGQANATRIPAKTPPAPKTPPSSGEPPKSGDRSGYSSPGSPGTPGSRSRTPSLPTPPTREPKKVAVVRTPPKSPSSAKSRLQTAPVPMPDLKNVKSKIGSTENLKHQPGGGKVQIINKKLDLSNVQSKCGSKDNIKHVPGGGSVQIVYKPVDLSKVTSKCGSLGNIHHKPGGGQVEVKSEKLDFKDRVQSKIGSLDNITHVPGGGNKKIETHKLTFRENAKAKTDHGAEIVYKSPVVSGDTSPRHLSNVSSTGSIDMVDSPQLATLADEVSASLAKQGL
T2 sequence (P05067 672-713): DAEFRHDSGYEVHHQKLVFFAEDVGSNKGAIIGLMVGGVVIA

In the case of `COc1ccc(-c2csc(-c3nc(-c4ccc5c(c4)OCO5)cs3)n2)cc1F` [d2, 4-(Benzo[d][1,3]dioxol-5-yl)-4′-(3-fluoro-4-methoxyphenyl)-2,2′-bithiazole], the Ki on tau fibrils was 0.681 µM; at Aβ1−42 fibrils it was 0.147 µM; in assay [2], 0.00232 µM. Also, the entries for the “Selectivity Aβ/α-syn” value in assay [1] and in assay [2] were 198.1 and 63.4, respectively. In addition, the entries for the “Selectivity tau/α-syn” value in assay [1] and in assay [2] were above 819.7 and 293.4, respectively.

In the case of `COc1ccc(-c2csc(-c3nc(-c4cnc5c(c4)OCO5)cs3)n2)cc1F` [d4, 6-(4′-(3-Fluoro-4-methoxyphenyl)-[2,2′-bithiazol]-4-yl)-[1,3]dioxolo[4,5-b]pyridine], the Ki was determined as 0.364 µM on tau fibrils, 0.0874 µM on Aβ1−42 fibrils and 0.00256 µM in assay [2]. For the same compound, the entries for the “Selectivity Aβ/α-syn” value in assay [1] and in assay [2] were 417.1 and 34.1, respectively. Moreover, the “Selectivity tau/α-syn” value in assay [1] is given as above 1515.2; in assay [2], 142.2.

For the compound `FCCOCCOCCOc1cnc(-c2csc(-c3nc(-c4ccc5c(c4)OCO5)cs3)n2)nc1` [f7, 4-(Benzo[d][1,3]dioxol-5-yl)-4′-(5-(2-(2-(2-fluoroethoxy)ethoxy)ethoxy)pyrimidin-2-yl)-2,2′-bithiazole], the Ki came to 0.242 µM at tau fibrils, 0.00151 µM in assay [1], 0.0764 µM on Aβ1−42 fibrils and 0.00117 µM in assay [2]. Further, in assay [2], the “Selectivity Aβ/α-syn” value is 65.3. The “Selectivity tau/α-syn” value in assay [2] was 206.9.

For `COc1ccc(-c2csc(-c3nc(-c4cnc5c(c4)OCO5)cs3)n2)cc1OCCOCCF` [f9, 6-(4′-(3-(2-(2-Fluoroethoxy)ethoxy)-4-methoxyphenyl)-[2,2′-bithiazol]-4-yl)-[1,3]dioxolo [4,5-b]pyridine], the inhibition constant Ki worked out at 1.13 µM on tau fibrils, 0.00084 µM in assay [1], 0.0476 µM at Aβ1−42 fibrils and 0.00096 µM in assay [2]. Further, the “Selectivity Aβ/α-syn” value in assay [2] turned out to be 49.6. Besides, the “Selectivity tau/α-syn” value in assay [2] was found to be 1177.1.

In the case of `FCCOCCOCCOc1ccc(-c2csc(-c3nc(-c4cnc5c(c4)OCO5)cs3)n2)cc1F` [f10, 6-(4′-(3-Fluoro-4-(2-(2-(2-fluoroethoxy)ethoxy)ethoxy)phenyl)-[2,2′-bithiazol]-4-yl)-[1,3]dioxolo[4,5-b]pyridine], the inhibition constant (Ki) on tau fibrils was 0.615 µM; in assay [1] it was 0.001 µM; at Aβ1−42 fibrils it was 0.0373 µM; in assay [2] it was 0.00093 µM. Besides, the “Selectivity Aβ/α-syn” value in assay [2] is reported as 40.1.

Take `FCCOc1ccc(-c2csc(-c3nc(-c4ccc5c(c4)OCO5)cs3)n2)cc1` [f11, 4-(Benzo[d][1,3]dioxol-5-yl)-4′-(4-(2-fluoroethoxy)phenyl)-2,2′-bithiazole]: the figures for the Ki (on tau fibrils; on Aβ1−42 fibrils; in assay [2]) were 0.499 µM, 0.0996 µM and 0.00371 µM, respectively. The “Selectivity Aβ/α-syn” value in assay [2] is given as 26.9.

As for `FCCOCCOCCOc1ccc(-c2csc(-c3nc(-c4cnc5c(c4)OCO5)cs3)n2)cc1` [f12, 6-(4′-(4-(2-(2-(2-Fluoroethoxy)ethoxy)ethoxy)phenyl)-[2,2′-bithiazol]-4-yl)-[1,3]dioxolo[4,5-b]pyridine], the Ki at tau fibrils came to 0.983 µM. Further, the Ki at Aβ1−42 fibrils amounted to 0.0387 µM. In assay [2], the Ki was found to be 0.00092 µM, the “Selectivity Aβ/α-syn” value was 42.1 and the “Selectivity tau/α-syn” value was 1068.5.

Turning to `FCCOCCOCCOc1cnc(-c2csc(-c3nc(-c4cnc5c(c4)OCO5)cs3)n2)nc1` [f13, 6-(4′-(5-(2-(2-(2-Fluoroethoxy)ethoxy)ethoxy)pyrimidin-2-yl)-[2,2′-bithiazol]-4-yl)-[1,3]dioxolo[4,5-b]pyridine], the Ki at tau fibrils is 0.12 µM. Besides, on Aβ1−42 fibrils, the inhibitory constant (Ki) worked out at 0.0466 µM. Moreover, in assay [2], the Ki is 0.00038 µM, the “Selectivity Aβ/α-syn” value came out at 122.6 and the “Selectivity tau/α-syn” value turned out to be 315.8.

For the compound `COc1ccc(-c2csc(-c3nc(-c4ccc5c(c4)OCO5)cs3)n2)cc1OCCOCCOCCF` [f14, 4-(Benzo[d][1,3]dioxol-5-yl)-4′-(3-(2-(2-(2-fluoroethoxy)ethoxy)ethoxy)-4-methoxyphenyl)-2,2′-bithiazole], the Ki is 0.662 µM at tau fibrils, 0.21 µM on Aβ1−42 fibrils and 0.00174 µM in assay [2]. In assay [2], the “Selectivity Aβ/α-syn” value was 120.8. Also, in assay [2], the “Selectivity tau/α-syn” value was found to be 380.6.

Turning to `COc1cnc(-c2csc(-c3nc(-c4ccc5c(c4)OCO5)cs3)n2)nc1` [f15, 4-(Benzo[d][1,3]dioxol-5-yl)-4′-(5-methoxypyrimidin-2-yl)-2,2′-bithiazole], the Ki on tau fibrils amounted to 0.707 µM. For the same compound, the Ki on Aβ1−42 fibrils is 0.0593 µM. In addition, in assay [2], the Ki is 0.00245 µM, the “Selectivity Aβ/α-syn” value came to 24.2 and the “Selectivity tau/α-syn” value is 288.6.

`COc1ccc(-c2csc(-c3nc(-c4cnc5c(c4)OCO5)cs3)n2)cc1` [f17, 6-(4′-(4-Methoxyphenyl)-[2,2′-bithiazol]-4-yl)-[1,3]dioxolo[4,5-b]pyridine]: at tau fibrils, the Ki was determined as 0.513 µM. Also, at Aβ1−42 fibrils, the inhibition constant (Ki) turned out to be 0.167 µM. In assay [2], the Ki turned out to be 0.00178 µM, the “Selectivity Aβ/α-syn” value worked out at 94.1 and the “Selectivity tau/α-syn” value is given as 288.0.

With `COc1ccc(-c2csc(-c3nc(-c4cnc5c(c4)OCO5)cs3)n2)c(OC)c1` [f19, 6-(4′-(2,4-Dimethoxyphenyl)-[2,2′-bithiazol]-4-yl)-[1,3]dioxolo[4,5-b]pyridine], the Ki amounted to 0.671 µM on tau fibrils, 0.149 µM on Aβ1−42 fibrils and 0.00135 µM in assay [2]. Also, the “Selectivity Aβ/α-syn” value in assay [2] is recorded as 110.1. In addition, the “Selectivity tau/α-syn” value in assay [2] is on record as 497.3.

Turning to `FCCOCCOc1ccc(-c2csc(-c3nc(-c4cnc5c(c4)OCO5)cs3)n2)c(OCCOCCF)c1` [f20, 6-(4′-(2,4-Bis(2-(2-fluoroethoxy)ethoxy)phenyl)-[2,2′-bithiazol]-4-yl)-[1,3]dioxolo[4,5-b]pyridine], the Ki on tau fibrils was determined as 0.815 µM; on Aβ1−42 fibrils, 0.221 µM; in assay [2] it was 0.00131 µM. Also, the “Selectivity Aβ/α-syn” value in assay [2] stood at 168.9. Further, in assay [2], the “Selectivity tau/α-syn” value amounted to 621.8.
